Our source for the IC50 values is US20240116910A1, “Heterocycles as WIP1 Inhibitors” (PMV Pharmaceuticals, Inc., priority 2022, published 2024).

The structures appear in SMILES notation.

Test [1] deals with recombinant His-tag Wip1 full length protein (amino acids #1-605) (Homo sapiens (Human), UniProt O15297). In words: Wip1 full length phosphatase enzyme FDP assay. The class given is biochemical. As to conditions: fluorescein diphosphate (FDP) substrate, RT 2 hours, fluorescence Ex485/Em535.
Chain of recombinant His-tag Wip1 full length protein (amino acids #1-605) (O15297 whole entry, the tested form may be a part): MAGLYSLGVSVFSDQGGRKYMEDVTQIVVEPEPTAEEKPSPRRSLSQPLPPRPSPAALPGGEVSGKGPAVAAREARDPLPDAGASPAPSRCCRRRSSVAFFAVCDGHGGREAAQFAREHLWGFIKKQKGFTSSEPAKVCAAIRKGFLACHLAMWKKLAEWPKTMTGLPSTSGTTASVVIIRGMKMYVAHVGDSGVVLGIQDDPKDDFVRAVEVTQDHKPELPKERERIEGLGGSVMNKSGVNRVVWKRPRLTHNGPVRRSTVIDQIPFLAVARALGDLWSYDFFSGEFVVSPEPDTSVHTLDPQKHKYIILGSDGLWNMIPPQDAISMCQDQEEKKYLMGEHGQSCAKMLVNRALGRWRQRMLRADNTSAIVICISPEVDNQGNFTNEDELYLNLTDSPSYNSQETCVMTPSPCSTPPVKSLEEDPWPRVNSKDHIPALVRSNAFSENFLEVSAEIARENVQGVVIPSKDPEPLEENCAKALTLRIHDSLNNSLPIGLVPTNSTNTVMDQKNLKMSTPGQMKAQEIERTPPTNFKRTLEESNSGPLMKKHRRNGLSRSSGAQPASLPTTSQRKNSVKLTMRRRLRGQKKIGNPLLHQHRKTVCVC
In test [2] the target is recombinant His-tag Wip1(2-420) protein (amino acids #2-420) (Homo sapiens (Human), UniProt O15297). In words: Wip1(2-420) phosphatase enzyme FDP assay. Type of test: biochemical. As to conditions: fluorescein diphosphate (FDP) substrate, RT 2 hours, fluorescence Ex485/Em535; read-out: WIP1 (Truncated 2-420) FDP Assay: IC50.
Chain of recombinant His-tag Wip1(2-420) protein (amino acids #2-420) (O15297 2-420): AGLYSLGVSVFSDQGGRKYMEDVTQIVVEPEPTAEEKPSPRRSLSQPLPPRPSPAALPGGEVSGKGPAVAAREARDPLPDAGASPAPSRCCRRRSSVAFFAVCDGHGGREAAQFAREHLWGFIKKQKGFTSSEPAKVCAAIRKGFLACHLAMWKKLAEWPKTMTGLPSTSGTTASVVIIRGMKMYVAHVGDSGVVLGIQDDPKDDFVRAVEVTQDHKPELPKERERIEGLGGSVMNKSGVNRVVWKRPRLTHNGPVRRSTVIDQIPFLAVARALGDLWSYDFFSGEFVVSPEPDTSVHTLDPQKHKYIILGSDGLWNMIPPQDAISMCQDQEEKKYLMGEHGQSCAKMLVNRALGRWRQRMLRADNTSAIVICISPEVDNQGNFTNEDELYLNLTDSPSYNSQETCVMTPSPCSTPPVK

The term IC50 denotes the concentration at which inhibition is half-maximal. Take `Cc1ncc(Cl)cc1N[C@H](C)c1ccc(C(=O)N[C@@H](CC2CCCC2)C(=O)NC23CC(C2)C3)s1` [Compound 12, (2S)-N-{bicyclo[1.1.1]pentan-1-yl}-2-({5-[(1R)-1-[(5-chloro-2-methylpyridin-3-yl)amino]ethyl]thiophen-2-yl}formamido)-3-cyclopentylpropanamide]: the figures for the IC50 in test [1] and in test [2] were 356 nM and 148 nM, respectively.

As to `Cc1ncc(Cl)cc1N[C@@H](C)c1ccc(C(=O)N[C@@H](CC2CCCC2)C(=O)NC23CC(C(=O)O)(C2)C3)s1` [Compound 43, 3-[(2S)-2-({5-[(1S)-1-[(5-chloro-2-methylpyridin-3-yl)amino]ethyl]thiophen-2-yl}formamido)-3-cyclopentylpropanamido]bicyclo[1.1.1]pentane-1-carboxylic acid], the IC50 in test [1] amounted to 16 nM; in test [2] it was 13 nM.

Consider `Cc1cc(NC(=O)[C@H](CC2CCCC2)NC(=O)c2cnc(C(C)Nc3cccc(Cl)c3)s2)cc(C)n1` (stereo partly drawn) [Compound 122, (2S)-2-[(2-{1-[(3-chlorophenyl)amino]ethyl}-1,3-thiazol-5-yl)formamido]-3-cyclopentyl-N-(2,6-dimethylpyridin-4-yl)propanamide], for which the IC50 was 62 nM in test [1] and 130 nM in test [2].

`C[C@@H](Nc1cc(Cl)cnc1C1CC1)c1ccc(C(=O)N[C@@H](CC2CCCC2)C(=O)NC2CC2)s1` [Compound 71, (2S)-2-({5-[(1R)-1-[(5-chloro-2-cyclopropylpyridin-3-yl)amino]ethyl]thiophen-2-yl}formamido)-3-cyclopentyl-N-cyclopropylpropanamide]: the IC50 in test [1] came to 215 nM; in test [2], 127 nM.

For the compound `CC[C@H](Nc1cc(Cl)cnc1C)c1ccc(C(=O)N[C@@H](CC2CCCC2)C(=O)NC23CC(C#N)(C2)C3)s1` [Compound 80, (2S)-2-({5-[(1S)-1-[(5-chloro-2-methylpyridin-3-yl)amino]propyl]thiophen-2-yl}formamido)-N-{3-cyanobicyclo[1.1.1]pentan-1-yl}-3-cyclopentylpropanamide], the IC50 in test [1] was 18 nM; in test [2] it was 10 nM.

Turning to `CN(Cc1ncc(C(=O)N[C@@H](CC2CCCCC2)C(=O)N[C@H]2CC[C@H](N(C)C)CC2)s1)c1cncc(Cl)c1` [Compound 303, 2-[[(5-chloro-3-pyridyl)-methyl-amino]methyl]-N-[(1S)-1-(cyclohexylmethyl)-2-[[4-(dimethylamino)cyclohexyl]amino]-2-oxo-ethyl]thiazole-5-carboxamide], the IC50 in test [1] and in test [2] was 67 nM each time.

With `Cc1ncc(Cl)cc1N[C@@H](C)c1ccc(C(=O)N[C@@H](CC2CCCC2)C(=O)NC23CC(F)(C2)C3)s1` [Compound 16, (2S)-2-({5-[(1S)-1-[(5-chloro-2-methylpyridin-3-yl)amino]ethyl]thiophen-2-yl}formamido)-3-cyclopentyl-N-{3-fluorobicyclo[1.1.1]pentan-1-yl}propanamide], the IC50 in test [1] was found to be 10 nM; in test [2], 7 nM.

`Cc1ncc(Cl)cc1N[C@@H](C)c1ncc(C(=O)N[C@@H](CC2CCCC2)C(=O)NC2CC2)s1` [Compound 279, (2S)-2-({2-[(1S)-1-[(5-chloro-2-methylpyridin-3-yl)amino]ethyl]-1,3-thiazol-5-yl}formamido)-3-cyclopentyl-N-cyclopropylpropanamide]: the IC50 in test [1] worked out at 53 nM; in test [2], 41 nM.

Turning to `CC[C@@H](Nc1cc(Cl)cnc1C)c1ccc(C(=O)N[C@@H](CC2CCCC2)C(=O)NC2CC2)s1` [Compound 39, (2S)-2-({5-[(1R)-1-[(5-chloro-2-methylpyridin-3-yl)amino]propyl]thiophen-2-yl}formamido)-3-cyclopentyl-N-cyclopropylpropanamide], the values for the IC50 in test [1] and in test [2] were 332 nM and 122 nM, respectively.
